Key:
giant foxtail = assay: Test A pre-/postemergence herbicide test; type: in vivo, Setaria faberii
How it was run: (§1)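 Directed soil spray to seeded pots (preemergence) or spray onto one- to two-leaf seedlings 2–10 cm tall (postemergence); loam/sand substrate throughout. Evaluated visually after about 10 days against untreated plants, 0 = no effect, 100 = complete control.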

pigweed [1] = assay: Test A pre-/postemergence herbicide test; type: in vivo, Amaranthus retroflexus
How it was run: as §1

corn = assay: Test A pre-/postemergence herbicide test; type: in vivo, Zea mays
How it was run: as §1

rice = assay: Test B flooded paddy test; type: in vivo, Oryza sativa; conditions: Flood, scale of 0 to 100 where 0 is no effect and 100 is complete control
How it was run: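 First, plants reach the 2-leaf stage; next, pots are flooded to 3 cm and compound is delivered into the water; finally, after 13 to 15 greenhouse days at constant depth, injury is graded visually from 0 to 100 against controls.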

ryegrass, Italian = assay: Test C pre-/postemergence herbicide test; type: in vivo, Lolium multiflorum
How it was run: (§2)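 Two application timings ran in parallel with identically formulated test chemicals (non-phytotoxic solvent, surfactant included): spray on seeded loam–sand soil, and spray on emerged plants 2 to 18 cm high. Evaluation at 13 to 15 days compared each species with controls, rated from 0 up to 100.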

galium = assay: Test C pre-/postemergence herbicide test; type: in vivo, Galium aparine
How it was run: as §2

johnsongrass = assay: Test C pre-/postemergence herbicide test; type: in vivo, Sorghum halepense
How it was run: as §2

nutsedge, yellow = assay: Test C pre-/postemergence herbicide test; type: in vivo, Cyperus esculentus
How it was run: as §2

pigweed [2] = assay: Test C pre-/postemergence herbicide test; type: in vivo, Amaranthus retroflexus
How it was run: as §2

ragweed = assay: Test C pre-/postemergence herbicide test; type: in vivo, Ambrosia elatior
How it was run: as §2

waterhemp = assay: Test C pre-/postemergence herbicide test; type: in vivo, Amaranthus rudis
How it was run: as §2

[3] = Postemergence, 125 g ai/ha, visual rating on 0 to 100 scale (0 no effect, 100 complete control), approx. 10 days
[4] = Postemergence, 500 g ai/ha, 0 to 100 scale (0 no effect, 100 complete control)
[5] = Preemergence, 125 g ai/ha, 0 to 100 scale where 0 is no effect and 100 is complete control
[6] = Preemergence, 500 g ai/ha, visual rating on 0 to 100 scale (0 no effect, 100 complete control)
[7] = Preemergence, 62 g ai/ha, scale 0 to 100 (0 no effect, 100 complete control)
[8] = Preemergence, 125 g ai/ha, scale 0 to 100
[9] = Preemergence, 31 g ai/ha, scale 0 to 100, 0 is no effect and 100 is complete control
[10] = Preemergence, 31 g ai/ha, scale 0 to 100
[11] = Postemergence, 1000 g ai/ha, 0 to 100 scale (0 no effect, 100 complete control)
[12] = preemergence, 1000 g ai/ha, 0 to 100 scale
[13] = Postemergence, 31 g ai/ha, scale 0 (no effect) to 100 (complete control)
[14] = Postemergence, 62 g ai/ha, scale 0 to 100 (0 no effect, 100 complete control)
[15] = Postemergence, 125 g ai/ha, scale 0 to 100 (0 no effect, 100 complete control)
[16] = Postemergence, 250 g ai/ha, scale 0 to 100 (0 no effect, 100 complete control)
[17] = 125 g ai/ha, visual rating, 0 to 100 scale, 0 no effect, 100 complete control, approximately 10 days, preemergence
[18] = Postemergence, 125 g ai/ha, 0 to 100 scale, 0 is no effect, 100 is complete control
[19] = preemergence, 500 g ai/ha, 0 to 100 scale, 0 is no effect and 100 is complete control
[20] = Preemergence, 125 g ai/ha, scale 0 to 100 (0 no effect, 100 complete control)

SMILES: O=C1NCC(c2cccc(C(F)(F)F)c2)C1C(=O)Nc1ccc(F)c(F)c1F (stereo not shown) [Compound 345]
- Plant response rating, Foxtail, Giant (giant foxtail; [3]): 90
- Plant response rating, Foxtail, Giant (giant foxtail; [4]): 90
- Plant response rating, Foxtail, Giant (giant foxtail; [5]): 90
- Foxtail, Giant plant response rating (giant foxtail; [6]): 90
- Plant response rating, Pigweed (pigweed [1]; [3]): 20
- Plant response rating, Pigweed (pigweed [1]; [5]): 0
- Pigweed plant response rating (pigweed [1]; [6]): 70
- Plant response rating, Corn (corn; [3]): 80
- Plant response rating, Corn (corn; [4]): 90
- Plant response rating, Rice (rice; 1000 g ai/ha): 0
- Ryegrass, Italian plant response rating (ryegrass, Italian; [7]): 45
- Plant response rating, Ryegrass, Italian (ryegrass, Italian; [8]): 10
- Galium plant response rating (galium; [9]): 20
- Galium plant response rating (galium; [7]): 90
- Plant response rating, Galium (galium; [8]): 90
- Plant response rating (scale of 0 to 100), Galium (galium; Preemergence, 250 g ai/ha): 85
- Johnsongrass plant response rating (johnsongrass; [9]): 35
- Johnsongrass plant response rating (johnsongrass; [7]): 75
- Plant response rating, Johnsongrass (johnsongrass; [8]): 85
- Plant response rating (scale of 0 to 100), Johnsongrass (johnsongrass; Preemergence, 250 g ai/ha): 90
- Nutsedge, Yellow plant response rating (nutsedge, yellow; [9]): 0
- Nutsedge, Yellow plant response rating (nutsedge, yellow; [7]): 0
- Plant response rating, Nutsedge, Yellow (nutsedge, yellow; [8]): 0
- Plant response rating (scale of 0 to 100), Nutsedge, Yellow (nutsedge, yellow; Preemergence, 250 g ai/ha): 0
- Pigweed plant response rating (pigweed [2]; [9]): 30
- Pigweed plant response rating (pigweed [2]; [7]): 30
- Plant response rating, Pigweed (pigweed [2]; [8]): 65
- Ragweed plant response rating (ragweed; [7]): 40
- Plant response rating, Ragweed (ragweed; [8]): 15
- Waterhemp plant response rating (waterhemp; [7]): 5
- Plant response rating, Waterhemp (waterhemp; [8]): 40

SMILES: O=C1NCC(c2ccc(OC(F)F)cc2)C1C(=O)Nc1cccc(F)c1F (racemic) [Compound 350]
- Plant response rating, Foxtail, Giant (giant foxtail; [3]): 80
- Plant response rating, Foxtail, Giant (giant foxtail; [4]): 90
- Plant response rating, Foxtail, Giant (giant foxtail; [5]): 90
- Foxtail, Giant plant response rating (giant foxtail; [6]): 90
- Plant response rating, Pigweed (pigweed [1]; [3]): 20
- Plant response rating, Pigweed (pigweed [1]; [5]): 50
- Pigweed plant response rating (pigweed [1]; [6]): 80
- Plant response rating, Corn (corn; [3]): 20
- Plant response rating, Corn (corn; [4]): 40
- Plant response rating, Rice (rice; 500 g ai/ha): 0
- Ryegrass, Italian plant response rating (ryegrass, Italian; [7]): 0
- Plant response rating, Ryegrass, Italian (ryegrass, Italian; [8]): 5
- Plant response rating, Ryegrass, Italian (ryegrass, Italian; [10]): 0
- Galium plant response rating (galium; [7]): 85
- Plant response rating, Galium (galium; [8]): 90
- Plant response rating (scale of 0 to 100), Galium (galium; Preemergence, 250 g ai/ha): 90
- Plant response rating, Galium (galium; [10]): 30
- Johnsongrass plant response rating (johnsongrass; [7]): 0
- Plant response rating, Johnsongrass (johnsongrass; [8]): 0
- Plant response rating (scale of 0 to 100), Johnsongrass (johnsongrass; Preemergence, 250 g ai/ha): 30
- Plant response rating, Johnsongrass (johnsongrass; [10]): 0
- Nutsedge, Yellow plant response rating (nutsedge, yellow; [7]): 0
- Plant response rating, Nutsedge, Yellow (nutsedge, yellow; [8]): 0
- Plant response rating (scale of 0 to 100), Nutsedge, Yellow (nutsedge, yellow; Preemergence, 250 g ai/ha): 0
- Plant response rating, Nutsedge, Yellow (nutsedge, yellow; [10]): 0
- Pigweed plant response rating (pigweed [2]; [7]): 10
- Plant response rating, Pigweed (pigweed [2]; [8]): 80
- Plant response rating, Pigweed (pigweed [2]; [10]): 0
- Ragweed plant response rating (ragweed; [7]): 0
- Plant response rating, Ragweed (ragweed; [8]): 5
- Plant response rating, Ragweed (ragweed; [10]): 0
- Waterhemp plant response rating (waterhemp; [7]): 50
- Plant response rating, Waterhemp (waterhemp; [8]): 90
- Plant response rating, Waterhemp (waterhemp; [10]): 0

SMILES: Cc1c(F)cccc1NC(=O)C1C(=O)NCC1c1ccc(F)c(F)c1 (racemic) [Compound 106]
- Plant response rating, Foxtail, Giant (giant foxtail; [11]): 90
- Plant response rating, Foxtail, Giant (giant foxtail; [12]): 90
- Plant response rating, Pigweed (pigweed [1]; [11]): 0
- Plant response rating, Pigweed (pigweed [1]; [12]): 0
- Plant response rating, Corn (corn; [11]): 50
- Plant response rating, Corn (corn; [12]): 30
- Plant response rating, Rice (rice; 1000 g ai/ha): 15
- Plant response rating, Ryegrass, Italian (ryegrass, Italian; [13]): 0
- Plant response rating, Ryegrass, Italian (ryegrass, Italian; [14]): 0
- Plant response rating, Ryegrass, Italian (ryegrass, Italian; [15]): 0
- Plant response rating, Ryegrass, Italian (ryegrass, Italian; [16]): 5
- Plant response rating, Galium (galium; [13]): 0
- Plant response rating, Galium (galium; [14]): 0
- Plant response rating, Galium (galium; [15]): 50
- Plant response rating, Galium (galium; [16]): 35
- Plant response rating, Johnsongrass (johnsongrass; [13]): 0
- Plant response rating, Johnsongrass (johnsongrass; [14]): 0
- Plant response rating, Johnsongrass (johnsongrass; [15]): 0
- Plant response rating, Johnsongrass (johnsongrass; [16]): 0
- Plant response rating, Nutsedge, Yellow (nutsedge, yellow; [13]): 0
- Plant response rating, Nutsedge, Yellow (nutsedge, yellow; [14]): 0
- Plant response rating, Nutsedge, Yellow (nutsedge, yellow; [15]): 0
- Plant response rating, Nutsedge, Yellow (nutsedge, yellow; [16]): 0
- Plant response rating, Pigweed (pigweed [2]; [13]): 0
- Plant response rating, Pigweed (pigweed [2]; [14]): 0
- Plant response rating, Pigweed (pigweed [2]; [15]): 5
- Plant response rating, Pigweed (pigweed [2]; [16]): 30
- Plant response rating, Ragweed (ragweed; [13]): 25
- Plant response rating, Ragweed (ragweed; [14]): 0
- Plant response rating, Ragweed (ragweed; [15]): 0
- Plant response rating, Ragweed (ragweed; [16]): 5
- Plant response rating, Waterhemp (waterhemp; [13]): 0
- Plant response rating, Waterhemp (waterhemp; [14]): 0
- Plant response rating, Waterhemp (waterhemp; [15]): 10
- Plant response rating, Waterhemp (waterhemp; [16]): 20

SMILES: O=C1NCC(c2ccc(C(F)(F)F)cc2)C1C(=O)Nc1ccccc1F (stereo not shown) [Compound 231]
- Plant response rating, Foxtail, Giant (giant foxtail; [17]): 90
- Plant response rating, Foxtail, Giant (giant foxtail; [18]): 70
- Foxtail, Giant plant response rating (0 to 100 scale, 0 is no effect, 100 is complete control) (giant foxtail; Postemergence, 500 g ai/ha): 90
- Plant response rating, Foxtail, Giant (giant foxtail; [19]): 90
- Plant response rating, Pigweed (pigweed [1]; [17]): 70
- Plant response rating, Pigweed (pigweed [1]; [18]): 0
- Pigweed plant response rating (0 to 100 scale, 0 is no effect, 100 is complete control) (pigweed [1]; Postemergence, 500 g ai/ha): 40
- Plant response rating, Pigweed (pigweed [1]; [19]): 70
- Plant response rating, Corn (corn; [18]): 30
- Corn plant response rating (0 to 100 scale, 0 is no effect, 100 is complete control) (corn; Postemergence, 500 g ai/ha): 40
- Plant response rating, Rice (rice; 500 g ai/ha): 0
- Ryegrass, Italian plant response rating (ryegrass, Italian; [9]): 0
- Ryegrass, Italian plant response rating (ryegrass, Italian; [7]): 10
- Plant response rating, Ryegrass, Italian (ryegrass, Italian; [20]): 15
- Plant response rating (scale of 0 to 100), Ryegrass, Italian (ryegrass, Italian; Preemergence, 250 g ai/ha): 15
- Galium plant response rating (galium; [9]): 0
- Galium plant response rating (galium; [7]): 85
- Plant response rating, Galium (galium; [20]): 90
- Plant response rating (scale of 0 to 100), Galium (galium; Preemergence, 250 g ai/ha): 90
- Johnsongrass plant response rating (johnsongrass; [9]): 0
- Johnsongrass plant response rating (johnsongrass; [7]): 10
- Plant response rating, Johnsongrass (johnsongrass; [20]): 45
- Plant response rating (scale of 0 to 100), Johnsongrass (johnsongrass; Preemergence, 250 g ai/ha): 60
- Nutsedge, Yellow plant response rating (nutsedge, yellow; [9]): 0
- Nutsedge, Yellow plant response rating (nutsedge, yellow; [7]): 0
- Plant response rating, Nutsedge, Yellow (nutsedge, yellow; [20]): 0
- Plant response rating (scale of 0 to 100), Nutsedge, Yellow (nutsedge, yellow; Preemergence, 250 g ai/ha): 0
- Pigweed plant response rating (pigweed [2]; [9]): 35
- Pigweed plant response rating (pigweed [2]; [7]): 70
- Plant response rating, Pigweed (pigweed [2]; [20]): 85
- Plant response rating (scale of 0 to 100), Pigweed (pigweed [2]; Preemergence, 250 g ai/ha): 90
- Ragweed plant response rating (ragweed; [9]): 80
- Ragweed plant response rating (ragweed; [7]): 100
- Plant response rating, Ragweed (ragweed; [20]): 80
- Plant response rating (scale of 0 to 100), Ragweed (ragweed; Preemergence, 250 g ai/ha): 85
- Waterhemp plant response rating (waterhemp; [9]): 75
- Waterhemp plant response rating (waterhemp; [7]): 85
- Plant response rating, Waterhemp (waterhemp; [20]): 100
- Plant response rating (scale of 0 to 100), Waterhemp (waterhemp; Preemergence, 250 g ai/ha): 95

Source: patent publication US10294202B2, “Pyrrolidinones as herbicides” (FMC Corporation, priority 2013, dated 2019)
